Values of other authors, collected in US20050032677A1, “Fungicidal and/or bactericidal composition, production process thereof and sterilization method using the composition” (priority 2001, published 2005).
Like-named read-outs stand apart in the source and are kept apart here. *1 amine or outer side, *2 acyl side, *3 side chain or, on linkers, in order; H or OH if unused. Where a SMILES comes first, the peptide text is derived from it. Bridges are numbered along the chain shown (N, C = ends). [ ]: non-standard residue; d: D form. X1 = CC(C)CCCCCCCCC[C@H](CC(=O)[*:1])O[*:2]

What was measured:
erythrocyte = settings: relative to mixing iturin and surfactin
erythrocyte membrane = settings: relative to mixing iturin and surfactin in the latter ratio (2:1)
mouse = settings: hypodermic injection to a mouse

Row | Compound | critical micelle concentration (CMC) (aqueous solution) | critical micelle concentration (CMC) (in a 0.1M sodium hydrogencarbonate solution) | hemolysis activity relative to iturin and surfactin mixture (erythrocyte) | amount bound to the erythrocyte membrane relative to iturin:surfactin 2:1 (erythrocyte membrane) | LD50 (mouse)
1 | CC(C)CCCCCCCCC[C@@H]1CC(=O)N[C@@H](CCC(=O)O)C(=O)N[C@@H](CC(C)C)C(=O)N[C@H](CC(C)C)C(=O)N[C@@H](C(C)C)C(=O)N[C@@H](CC(=O)O)C(=O)N[C@H](CC(C)C)C(=O)N[C@@H](CC(C)C)C(=O)O1 [surfactin] (EL[dL]VD[dL]L; linker N-C via X1) | 250 µM | 10 µM | – | – | –
2 | iturin | 40 µM | – | about one sixth | at most a half | 157 mg/kg
